Measurements published in US20220105183A1, “MICRO-NANO STRUCTURE FORMED BY SELF-ASSEMBLING ORGANIC SMALL MOLECULE COMPOUND AND USE THEREOF” (Qingdao University of Science and Technology, priority 2018, published 2022).

Key:
4T1 cells [1] = assay: Fluorescence imaging in subcutaneous metastasis model mice; assay type: in vivo, nude mice; conditions: 200 μL (1 mg/mL) tail vein
Method: (§1) The left side of 6-week-old female nude mice was injected subcutaneously with […] 4T1 cells to grow the tumor volume to 60 mm^3.
In the experimental group, 200 μL of II-1 (1 mg/mL) was injected into the tail vein of mice. After injection, the living imager was used to monitor at different times. […] Then they were dissected, and the heart, liver, spleen, lung, kidney and tumor were imaged by fluorescence. […] This proves that Compound II-1 targets the tumor site very well.

HeLa cells = assay: Cell photothermal experiment; assay type: cell-based
Method: HeLa cells were digested from the culture flask with trypsin, centrifuged, added to a DMEM medium containing 10% serum and 1% double antibody, and mixed well. 20 μL of cells were taken and stained with Compound II-1 (20 μM) for 30 minutes. After taking it out, it was centrifuged and rinsed twice with PBS. After centrifuging, 20 μL of culture medium and 20 μL of trypan blue were added. 20 μL was taken from the mixture to the cell count plate and photographed under fluorescence microscope. In the absence of laser irradiation, bright live cells were observed under the microscope, and the cell survival rate was 92%. When irradiated with 808 nm laser for 6 minutes, almost all the blue dead cells were observed under the microscope, and the cell death rate was as high as 100%. HeLa cells were cultured in 96-well plates, 10^4 cells per well, and live/dead staining after 24 h. The cells were irradiated with an 808 nm laser for 6 minutes, and the photographs were observed under a fluorescent microscope. […] It can be seen that the toxicity of the compound itself is extremely small, but its photothermal effect is particularly lethal to cancer cells, and it has bright prospects in the future clinical application of photothermal treatment of cancer. Other compounds of the present invention also have similar photothermal therapeutic effects.

[2] = Photothermal effect in vitro under 808 nm laser irradiation; assay type: physicochemical; conditions: for light-to-heat conversion efficiency: 808 nm laser; for temperature raised by / temperature reached: 808 nm laser 5 minutes; for temperature reached: from room temperature 30° C.
Method: A total of 4 groups of samples, 3 mL was taken and added to a cuvette respectively, and the lid was sealed.
The sample No. 2 was 10 μM II-1, and the specific preparation method is 3 mL deionized water plus 15 μL II-1 stock solution (2 mM, dissolved in DMSO);
The sample No. 3 was 20 μM II-1, and the specific preparation method was that 3 mL deionized water was added 30 μL II-1 stock solution (2 mM, dissolved in DMSO);
The sample No. 4 was 40 μM II-1, and the specific preparation method was that 3 mL deionized water was added 60 μL II-1 stock solution (2 mM, dissolved in DMSO).
Each sample was irradiated with an 808 nm laser for 5 minutes, and the temperature data was recorded every 5 seconds with a thermal imager, and the temperature corresponding to the time was plotted in origin, as shown in the left figure of FIG. 8. […] The temperature of sample No. 2 increased from room temperature 30° C. to 54° C., and the temperature was raised by 24° C. The temperature of sample No. 3 increased from room temperature 30° C. to 62° C., and the temperature was raised by 32° C. The temperature of sample No. 4 increased from room temperature 30° C. to 77° C., and the temperature was raised by 47° C.
Using a method similar to Example 8, 10 μM, 20 μM and 40 μM samples of II-16, II-17 and II-18 were prepared, respectively, they were irradiated under an 808 nm (2.6 W/cm-2) laser for 10 minutes. 40 μM II-16 to 18 samples can rise by 40° C., 36° C. and 18° C. respectively within 10 minutes under laser irradiation.
Using a method similar to that in Example 8, three samples of 20 μM of 1-16, II-17 and II-18 in water were irradiated with 808 nm (2.6 W/cm-2) laser for 10 minutes, and the light-to-heat conversion efficiency calculation result thereof were shown in FIG. 10. […] And II-18 not only has poor light-heat effect, but also has low light-heat conversion efficiency, only 12.9%.

4T1 cells [3] = assay: Photoacoustic imaging in subcutaneous metastasis model mice; assay type: in vivo, nude mice; conditions: 200 μL (300 μmoL) tail vein, multispectral photoacoustic tomography
Method: as §1
200 μL II-1 (300 μmoL) was injected into the mice of the experimental group through the tail vein. Monitored with multispectral photoacoustic tomography at different times. […] With the increase of time, until 24 hours, there was a photoacoustic signal at the tumor site.

4T1 cells [4] = assay: Photothermal imaging and photothermal treatment in subcutaneous metastasis model mice; assay type: in vivo, nude mice
Method: In the experimental group, 200 μL of II-1 (300 μmoL) was injected into the mouse through the tail vein, and the tumor site of the mouse was irradiated with an 808 nm laser for 10 minutes, while taking photos with a photothermal imaging instrument.
The nude mice were divided into 4 groups. In the first group, 200 μL of II-1 was injected into the mouse through the tail vein, and the tumor site of the mouse was irradiated with an 808 nm laser for 5 minutes. In the second group, 200 μL of II-1 (300 μmol) was injected, no laser irradiation. In the third group, saline was injected and laser irradiated for 5 minutes. In the fourth group, saline was injected, no laser irradiation. The tumor volume of each group of mice was measured daily with a vernier caliper, and the recording was continued for 30 days.

[5] = Photothermal stability, repeated 808 nm irradiation and cooling; assay type: physicochemical; conditions: sample No. 3, 20 μM, 808 nm laser 9 minutes, natural cooling, 5 times
Method: We selected sample No. 3 to test the photothermal stability experiment. As shown in the right figure of FIG. 8, sample No. 3 was irradiated with 808 nm laser for 9 minutes and then the temperature increased from room temperature 30° C. to 62° C., and then allowed to naturally cool down to room temperature, and irradiated with 808 nm laser again for 9 minutes, then naturally cooled down, and repeated for 5 times. […] After 9 minutes of irradiation, the temperature was raised by […], and then returned to room temperature.

[6] = sample No. 2, 10 μM in deionized water
[7] = sample No. 3, 20 μM in deionized water
[8] = sample No. 4, 40 μM in deionized water
[9] = Group 1: 200 μL tail vein, 808 nm laser 5 minutes
[10] = experimental group, 20 days after the experiment

## CCN1C(=CC=C2CCCC(C=CC3=C(C#N)C(=C(C#N)C#N)OC3(C)C)=C2Cl)C(C)(C)c2ccccc21 [II-1]
4T1 cells [1]; after 24 hours
  whole-body fluorescence distribution: all enriched in the tumor site
4T1 cells [1]; dissected after 24 hours
  fluorescence of dissected heart, liver, spleen, lung, kidney and tumor: the fluorescence was very strong at tumor site, with weak fluorescence in the liver, and no fluorescence in other parts
4T1 cells [1]; within 24 hours
  abnormalities in nude mice: no abnormalities such as spasms and convulsions occurred
HeLa cells; HeLa in 96-well plates, 808 nm laser 6 minutes
  dead cells, live/dead staining: 100%
HeLa cells; HeLa in 96-well plates, only the compound added, without laser irradiation
  live/dead staining, compound only: the cells were all alive
HeLa cells; HeLa, 20 μM for 30 minutes, 808 nm laser 6 minutes, trypan blue
  cell death rate: 100%
HeLa cells; HeLa, 20 μM for 30 minutes, no laser irradiation, trypan blue
  cell survival rate: 92%
[2]; [6]
  light-to-heat conversion efficiency: 60.4%
  temperature raised by: 24 °C
[2]; sample No. 2, 10 μM
  temperature reached: 54 °C
[2]; [7]
  light-to-heat conversion efficiency: 61%
  temperature raised by: 32 °C
[2]; sample No. 3, 20 μM
  temperature reached: 62 °C
[2]; [8]
  light-to-heat conversion efficiency: 60%
  temperature raised by: 47 °C
[2]; sample No. 4, 40 μM
  temperature reached: 77 °C
4T1 cells [3]
  time at which a clear photoacoustic signal was found at the tumor site: 4 h
  time until which there was a photoacoustic signal at the tumor site: 24 h
4T1 cells [4]; 200 μL (300 μmoL) tail vein, 808 nm laser 10 minutes
  temperature of tumor site under laser irradiation: 60 °C
4T1 cells [4]; [9]
  day on which the tumor ulcer had completely healed: 16 days
  tumor after photothermal treatment: the tumor disappeared after laser irradiation, and there was no recurrence within 20 days
4T1 cells [4]; experimental group and control group
  body weight: no abnormal change in the body weight
4T1 cells [4]; [10]
  H&E staining of lung and liver: no obvious damage to the lungs and liver
  H&E staining of tumor: the tumor cells had undergone apoptosis
4T1 cells [4]; group 2: 200 μL (300 μmol), no laser irradiation (stated for control groups 2, 3 and 4 together), in 20 days
  growth of tumor volume: 25 times
[5]
  temperature raised by, every time in 5 repeated irradiations: 25 °C
  temperature reached every time in 5 repeated irradiations: at least 55 °C
